Results on 31 compounds are retold here after US20170226120A1, “INHIBITORS OF HIF PROLYL HYDROXYLASE” (MERCK SHARP & DOHME CORP., priority 2014, published 2017).

For orientation: IC50 means the midpoint of a concentration-inhibition curve.

In the assay the target is T1, human HIF-PHD2 (Homo sapiens, UniProt Q9GZT9).
T1 construct: FLAG-tagged full length PHD2 expressed in and purified from baculovirus-infected Sf9 cells; FLAG; made in house; host or cells: baculovirus-infected Sf9 cells
T1 sequence (Q9GZT9 whole entry): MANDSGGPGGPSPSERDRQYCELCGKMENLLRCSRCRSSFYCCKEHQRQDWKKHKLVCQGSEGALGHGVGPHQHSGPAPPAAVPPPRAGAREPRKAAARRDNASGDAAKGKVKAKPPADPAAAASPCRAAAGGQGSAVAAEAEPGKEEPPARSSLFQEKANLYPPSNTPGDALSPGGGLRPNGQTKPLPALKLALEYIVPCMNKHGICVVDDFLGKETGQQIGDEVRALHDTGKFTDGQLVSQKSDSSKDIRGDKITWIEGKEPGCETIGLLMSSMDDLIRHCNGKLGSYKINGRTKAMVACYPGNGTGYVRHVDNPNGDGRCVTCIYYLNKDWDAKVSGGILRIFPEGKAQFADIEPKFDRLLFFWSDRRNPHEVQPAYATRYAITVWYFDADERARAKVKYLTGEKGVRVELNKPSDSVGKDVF
Put plainly: HIF-PHD2 inhibition, time resolved fluorescence assay of HIF-1α peptide hydroxylation. The assay is classed as biochemical. The note with it: FLAG-tagged full length PHD2; 0.2 μM 2-oxoglutarate, 0.5 μM HIF-1α peptide. The method, then:
To each well of a 384-well plate, 1 μL of test compounds in DMSO (final concentration ranging from 0.3 nM to 10 uM) were added into 20 μl of assay buffer (50 mM Tris pH 7.4/0.01% Tween-20/0.1 mg/ml bovine serum albumin/10 μM ferrous sulfate/1 mM sodium ascorbate/20 μg/ml catalase) containing 0.15 μg/ml FLAG-tagged full length PHD2 expressed in and purified from baculovirus-infected Sf9 cells. After a 5 min preincubation at room temperature, the enzymatic reactions were initiated by the addition of 4 μL of substrates {final concentrations of 0.2 μM 2-oxoglutarate and 0.5 μM HIF-1α peptide biotinyl-[…] […] After incubation for 45 minutes at room temperature, the reactions were terminated by the addition of a 25 μL quench/detection mix to a final concentration of 1 mM ortho-phenanthroline, 0.1 mM EDTA, 0.5 nM anti-(His)6 LANCE reagent (Perkin-Elmer Life Sciences), 100 nM AF647-labeled streptavidin (Invitrogen), and 2 μg/ml (His)6-VHL complex {S. Tan Protein Expr. Purif.
`CNC(=O)c1ccc(Cn2c3c(c(O)c(C(=O)NCC(=O)O)c2=O)COC3)cc1` [Example 23, 2-(4-hydroxy-1-(4-(methylcarbamoyl)benzyl)-2-oxo-1,2,5,7-tetrahydrofuro[3,4-b]pyridine-3-carboxamido)acetic acid] registered a 50% inhibitory concentration (IC50) of 10 nM.

In the case of `COC(=O)c1ccccc1Cn1c2c(c(O)c(C(=O)NCC(=O)O)c1=O)COC2` [Example 39, 2-(4-hydroxy-1-(2-(methoxycarbonyl)benzyl)-2-oxo-1,2,5,7-tetrahydrofuro[3,4-b]pyridine-3-carboxamido)acetic acid], inhibition was half-maximal at 19.7 nM (IC50). This IC50 lies about 2-fold higher than the previous one.

`CC(C)c1ccc(Cn2c3c(c(O)c(C(=O)NCC(=O)O)c2=O)COC3)cc1` [Example 29, 2-(4-hydroxy-1-(4-isopropylbenzyl)-2-oxo-1,2,5,7-tetrahydrofuro[3,4-b]pyridine-3-carboxamido)acetic acid] displayed an IC50 of 2.9 nM.

Take `O=C(O)CNC(=O)c1c(O)c2c(n(Cc3cccc(F)c3)c1=O)COC2` [Example 43, 2-(1-(3-fluorobenzyl)-4-hydroxy-2-oxo-1,2,5,7-tetrahydrofuro[3,4-b]pyridine-3-carboxamido)acetic acid]: inhibition was half-maximal at 8.4 nM (IC50). This IC50 is about 2.9-fold higher than that of the compound before.

As to `COC(=O)c1cccc(Cn2c3c(c(O)c(C(=O)NCC(=O)O)c2=O)COC3)c1` [Example 40, 2-(4-hydroxy-1-(3-(methoxycarbonyl)benzyl)-2-oxo-1,2,5,7-tetrahydrofuro[3,4-b]pyridine-3-carboxamido)acetic acid], half-maximal inhibition (IC50) required 8.1 nM.

With `Cn1ccc(Cn2c3c(c(O)c(C(=O)NCC(=O)O)c2=O)COC3)n1` [Example 16, 2-(4-hydroxy-1-((1-methyl-1H-pyrazol-3-yl)methyl)-2-oxo-1,2,5,7-tetrahydrofuro[3,4-b]pyridine-3-carboxamido)acetic acid], the 50% inhibitory concentration (IC50) was 7.1 nM.

In the case of `O=C(O)CNC(=O)c1c(O)c2c(n(Cc3cccc(Cl)c3)c1=O)COC2` [Example 38, 2-(1-(3-chlorobenzyl)-4-hydroxy-2-oxo-1,2,5,7-tetrahydrofuro[3,4-b]pyridine-3-carboxamido)acetic acid], the IC50 stood at 4.3 nM.

For the compound `N#Cc1ccccc1Cn1c2c(c(O)c(C(=O)NCC(=O)O)c1=O)COC2` [Example 33, 2-(1-(2-cyanobenzyl)-4-hydroxy-2-oxo-1,2,5,7-tetrahydrofuro[3,4-b]pyridine-3-carboxamido)acetic acid], half-maximal inhibition (IC50) required 4.6 nM.

The compound `O=C(O)CNC(=O)c1c(O)c2c(n(Cc3ccccc3F)c1=O)COC2` [Example 35, 2-(1-(2-fluorobenzyl)-4-hydroxy-2-oxo-1,2,5,7-tetrahydrofuro[3,4-b]pyridine-3-carboxamido)acetic acid] displayed an IC50 of 4.6 nM.

As to `O=C(O)CNC(=O)c1c(O)c2c(n(Cc3cnco3)c1=O)COC2` [Example 20, 2-(4-hydroxy-1-(oxazol-5-ylmethyl)-2-oxo-1,2,5,7-tetrahydrofuro[3,4-b]pyridine-3-carboxamido)acetic acid], the IC50 stood at 7.4 nM.

Consider `COc1ccc(Cn2c3c(c(O)c(C(=O)NCC(=O)O)c2=O)COC3)cn1` [Example 51, 2-(4-hydroxy-1-((6-methoxypyridin-3-yl)methyl)-2-oxo-1,2,5,7-tetrahydrofuro[3,4-b]pyridine-3-carboxamido)acetic acid], for which inhibition was half-maximal at 6.8 nM (IC50).

As to `O=C(O)CNC(=O)c1c(O)c2c(n(Cc3ccc(Cl)cc3F)c1=O)COC2` [Example 52, 2-(1-(4-chloro-2-fluorobenzyl)-4-hydroxy-2-oxo-1,2,5,7-tetrahydrofuro[3,4-b]pyridine-3-carboxamido)acetic acid], it took 2.7 nM to reach half-maximal inhibition (IC50).

In the case of `O=C(O)CNC(=O)c1c(O)c2c(n(Cc3cnc4ccccc4c3)c1=O)COC2` [Example 48, 2-(4-hydroxy-2-oxo-1-(quinolin-3-ylmethyl)-1,2,5,7-tetrahydrofuro[3,4-b]pyridine-3-carboxamido)acetic acid], 12.6 nM corresponded to half-maximal inhibition (IC50).

Regarding `CCc1ccc(Cn2c3c(c(O)c(C(=O)NCC(=O)O)c2=O)COC3)cn1` [Example 63, 2-(4-Hydroxy-2-oxo-1-((6-ethylpyridin-3-yl)methyl)-1,2,5,7-tetrahydrofuro[3,4-b]pyridine-3-carboxamido)acetic acid], inhibition was half-maximal at 5.4 nM (IC50).

Consider `O=C(O)CNC(=O)c1c(O)c2c(n(Cc3ccc(F)cn3)c1=O)COC2` [Example 14, 2-(1-((5-fluoropyridin-2-yl)methyl)-4-hydroxy-2-oxo-1,2,5,7-tetrahydrofuro[3,4-b]pyridine-3-carboxamido)acetic acid], for which the 50% inhibitory concentration (IC50) was 6.6 nM.

Compound `CS(=O)(=O)c1ccc(Cn2c3c(c(O)c(C(=O)NCC(=O)O)c2=O)COC3)cc1` [Example 7, 2-(4-hydroxy-1-(4-(methylsulfonyl)benzyl)-2-oxo-1,2,5,7-tetrahydrofuro[3,4-b]pyridine-3-carboxamido)acetic acid] came in with an IC50 of 7 nM.

Regarding `Cc1cc(Cn2c3c(c(O)c(C(=O)NCC(=O)O)c2=O)COC3)ccc1Cl` [Example 50, 2-(1-(4-chloro-3-methylbenzyl)-4-hydroxy-2-oxo-1,2,5,7-tetrahydrofuro[3,4-b]pyridine-3-carboxamido)acetic acid], the half-inhibitory concentration (IC50) came out at 5 nM.

In turn, `O=C(O)CNC(=O)c1c(O)c2c(n(Cc3ccccc3)c1=O)COC2` [Example 25, 2-(1-benzyl-4-hydroxy-2-oxo-1,2,5,7-tetrahydrofuro[3,4-b]pyridine-3-carboxamido)acetic acid] came in with an IC50 of 9.2 nM.

`O=C(O)CNC(=O)c1c(O)c2c(n(Cc3ccc4[nH]cnc4c3)c1=O)COC2` [Example 65, 2-(1-((1H-Benzo[d]imidazol-5-yl)methyl)-4-hydroxy-2-oxo-1,2,5,7-tetrahydrofuro[3,4-b]pyridine-3-carboxamido)acetic acid]: the half-inhibitory concentration (IC50) was found to be 11.8 nM.

In turn, `N#Cc1ccc(Cn2c3c(c(O)c(C(=O)NCC(=O)O)c2=O)COC3)c(F)c1` [Example 13, 2-(1-(4-cyano-2-fluorobenzyl)-4-hydroxy-2-oxo-1,2,5,7-tetrahydrofuro[3,4-b]pyridine-3-carboxamido)acetic acid] had an IC50 of 3 nM.

Regarding `N#Cc1ccc(Cn2c3c(c(O)c(C(=O)NCC(=O)O)c2=O)COC3)cc1F` [Example 53, 2-(1-(4-cyano-3-fluorobenzyl)-4-hydroxy-2-oxo-1,2,5,7-tetrahydrofuro[3,4-b]pyridine-3-carboxamido)acetic acid], the IC50 was determined as 7.1 nM. Compared with the last compound, the IC50 is about 2.4-fold higher.

Compound `O=C(N[C@H](CO)C(=O)O)c1c(O)c2c(n(Cc3ccc(C(F)(F)F)cc3)c1=O)COC2` [Example 1, (R)-3-Hydroxy-2-(4-hydroxy-2-oxo-1-(4-(trifluoromethyl)benzyl)-1,2,5,7-tetrahydrofuro[3,4-b]pyridine-3-carboxamido)propanoic acid] returned an IC50 of 59.7 nM.

`O=C(O)CNC(=O)c1c(O)c2c(n(Cc3cncc(F)c3)c1=O)COC2` [Example 10, 2-(1-((5-fluoropyridin-3-yl)methyl)-4-hydroxy-2-oxo-1,2,5,7-tetrdhydrofuro[3,4-b]pyridine-3-carboxamido)acetic acid] came in with a 50% inhibitory concentration (IC50) of 5.7 nM.

`O=C(N[C@@H](CO)C(=O)O)c1c(O)c2c(n(Cc3ccc(C(F)(F)F)cc3)c1=O)COC2` [Example 2, (S)-3-hydroxy-2-(4-hydroxy-2-oxo-1-(4-(trifluoromethyl)benzyl)-1,2,5,7-tetrahydrofuro[3,4-b]pyridine-3-carboxamido)propanoic acid] came in with a half-maximal inhibitory concentration (IC50) of 109 nM. Against the preceding compound, the IC50 is about 19-fold higher.

Take `NC(=O)c1ccc(Cn2c3c(c(O)c(C(=O)NCC(=O)O)c2=O)COC3)cc1` [Example 60, 2-(1-(4-Carbamoylbenzyl)-4-hydroxy-2-oxo-1,2,5,7-tetrahydrofuro[3,4-b]pyridine-3-carboxamido)acetic acid]: it took 4.3 nM to reach half-maximal inhibition (IC50). This IC50 is about 25-fold lower than that of the compound before.

Consider `O=C(O)CNC(=O)c1c(O)c2c(n(Cc3ccc(F)c(F)c3)c1=O)COC2` [Example 31, 2-(1-(3,4-difluorobenzyl)-4-hydroxy-2-oxo-1,2,5,7-tetrahydrofuro[3,4-b]pyridine-3-carboxamido)acetic acid], for which inhibition was half-maximal at 2.7 nM (IC50). Compared with the last compound, the IC50 is about 1.6-fold lower.

As for `O=C(O)CNC(=O)c1c(O)c2c(n(Cc3cccc(C(=O)O)c3)c1=O)COC2` [Example 59, 3-((3-((carboxymethyl)carbamoyl)-4-hydroxy-2-oxofuro[3,4-b]pyridin-1(2H,5H,7H)-yl)methyl)benzoic acid], inhibition was half-maximal at 8 nM (IC50). This IC50 is about 3-fold higher than that of the compound before.

In turn, `Cc1ncsc1Cn1c2c(c(O)c(C(=O)NCC(=O)O)c1=O)COC2` [Example 8, 2-(4-hydroxy-1-((4-methylthiazol-5-yl)methyl)-2-oxo-1,2,5,7-tetrahydrofuro[3,4-b]pyridine-3-carboxamido)acetic acid] returned an IC50 of 5.2 nM.

`O=C(O)CNC(=O)c1c(O)c2c(n(Cc3cc[nH]n3)c1=O)COC2` [Example 4, 2-(1-((1H-pyrazol-3-yl)methyl)-4-hydroxy-2-oxo-1,2,5,7-tetrahydrofuro[3,4-b]pyridine-3-carboxamido)acetic acid] registered a half-inhibitory concentration (IC50) of 9.2 nM. This IC50 lies about 1.8-fold higher than the previous one.

As for `Cc1cc(Cn2c3c(c(O)c(C(=O)NCC(=O)O)c2=O)COC3)ccc1C#N` [Example 44, 2-(1-(4-cyano-3-methylbenzyl)-4-hydroxy-2-oxo-1,2,5,7-tetrahydrofuro[3,4-b]pyridine-3-carboxamido)acetic acid], the IC50 is 3.1 nM.

As for `O=C(O)CNC(=O)c1c(O)c2c(n(Cc3ccccn3)c1=O)COC2` [Example 36, 2-((3-((carboxymethyl)carbamoyl)-4-hydroxy-2-oxofuro[3,4-b]pyridin-1(2H,5H,7H)-yl)methyl)pyridin-1-ium chloride], the concentration for half-maximal inhibition (IC50) worked out at 4.8 nM.
